This passage reports IC50 results from patent US20240116951A1, “HETEROCYCLIC COMPOUNDS AND USES THEREOF” (Kumquat Biosciences Inc., priority 2022, published 2024).

For this experiment, the target named is T1, KRAS G12S (Homo sapiens, UniProt P01116, G12S).
T1 construct: made in house; host or cells: E. coli, e.g. BL21 (DE3)
T1 sequence (P01116 1-188 isoform P01116-2 G12S): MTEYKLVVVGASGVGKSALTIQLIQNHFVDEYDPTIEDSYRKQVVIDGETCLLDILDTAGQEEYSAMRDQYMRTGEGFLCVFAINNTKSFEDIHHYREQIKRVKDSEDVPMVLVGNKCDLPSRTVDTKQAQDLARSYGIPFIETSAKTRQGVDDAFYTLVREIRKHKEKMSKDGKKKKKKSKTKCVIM
Briefly: HTRF assay of K-Ras G12S interaction with SOS1 (PPI-HTRF). The format is binding. The settings on record: 5 nM KRAS G12S, read-out: PPI-HTRF-5 nM KRAS G12S. The text has this: This assay can be also used to assess a selective inhibition or reduction of signaling output of a mutant Ras protein relative to a wildtype, or relative to a different mutant Ras protein. For example, the equilibrium interaction of wildtype Kras or K-Ras mutant (e.g., wildtype or a mutant thereof including those mentioned in Example 4) with SOS1 (e.g., hSOS1) can be assessed as a proxy or an indication for a subject compound's ability to bind and inhibit Ras protein. HTRF assay detects from (i) a fluorescence resonance energy transfer (FRET) donor (e.g., antiGST-Europium) that is bound to GST-tagged K-Ras mutant to (ii) a FRET acceptor (e.g., anti-6His-XL665) bound to a His-tagged hSOS1.
The assay buffer can contain ˜5 mM HEPES pH 7.4, ˜150 mM NaCl, ˜1 mM DTT, 0.05% BSA and 0.0025% (v/v) Igepal. A Ras working solution is prepared in an assay buffer containing typically a suitable amount of the protein construct (e.g., GST-tagged K-Ras mutant) and the FRET donor (e.g., antiGST-Eu(K) from Cisbio, France). A SOS1 working solution is prepared in an assay buffer containing suitable amount of the protein construct (e.g., His-hSOS1) and the FRET acceptor (e.g., anti-6His-XL665 from Cisbio, France). A suitable amount of the protein construct will depend on the range of activity or range of IC50 values being detected or under investigation. For detecting IC50 within a range of 500 nM, the protein constructs of the same range of molarity can be utilized. […] A fixed volume of DMSO with or without test compound is transferred into a 384-well plate. Ras working solution is added to all wells of the test plate. SOS1 working solution is added to all wells except for those that are subsequently filled the inhibitor control solution. Upon incubation for about 10 minutes or longer, the fluorescence is measured with a M1000Pro plate reader (Tecan) using HTRF detection (excitation 337 nm, emission 1: 620 nm, emission 2: 665 nm). Compounds are tested in duplicates at different concentrations (for example, 10 μM, 2.5 μM, 0.63 μM, 0.16 μM, 0.04 μM, 0.01 μM test compound). The ratiometric data (i.e., emission 2 divided by emission 1) is used to calculate IC50 values against Ras using GraphPad Prism (GraphPad software). Following this general procedure, samples were tested with or without a subject compound disclosed herein including compounds exemplified in Table 1 to assess their abilities to inhibit a mutant K-Ras relative to another mutant K-Ras or wildtype K-Ras. Signaling output measured in terms of IC50 values can be obtained, a ratio of IC50 against one mutant relative to another mutant can be calculated. For instance, a selective reduction of K-Ras G12D signaling output can be evidenced by a ratio greater than one. In particular, a selective reduction of K-Ras G12D signaling relative to K-Ras WT signaling is evidenced as the ratio of IC50 (against K-Ras WT) to IC50 (against K-Ras G12D) is greater than 1.
`N#CCC1CN(c2nc(OC[C@@]34CCCN3C[C@H](F)C4)nc3c(F)c(-c4ccc(F)c5sc(N)c(C#N)c45)c(Cl)cc23)CC12CCN2C(=O)n1cnc(C(F)F)n1` (stereo partly drawn) [Compound 330, (4R)-2-amino-4-(6-chloro-4-(8-(cyanomethyl)-1-(3-(difluoromethyl)-1H-1,2,4-triazole-1-carbonyl)-1,6-diazaspiro[3.4]octan-6-yl)-8-fluoro-2-(((2R,7aS)-2-fluorotetrahydro-1H-pyrrolizin-7a(5H)-yl)methoxy)quinazolin-7-yl)-7-fluorobenzo[b]thiophene-3-carbonitrile]: the IC50 is less than 5 µM.

`N#Cc1c(N)sc2c(F)ccc(-c3c(Cl)cc4c(N5CCCCC6(CCCN6C(=O)n6cncn6)C5)nc(OC[C@@]56CCCN5C[C@H](F)C6)nc4c3F)c12` (stereo partly drawn) [Compound 231, 4-(4-(1-(1H-1,2,4-triazole-1-carbonyl)-1,7-diazaspiro[4.6]undecan-7-yl)-6-chloro-8-fluoro-2-(((2R,7aS)-2-fluorotetrahydro-1H-pyrrolizin-7a(5H)-yl)methoxy)quinazolin-7-yl)-2-amino-7-fluorobenzo[b]thiophene-3-carbonitrile]: the IC50 was less than 5 µM.

In the case of `N#Cc1c(N)sc2c(F)ccc(-c3c(Cl)cc4c(N5CCCC6(CCCN6)C5)nc(OC[C@@]56CCCN5C[C@H](F)C6)nc4c3F)c12` (stereo partly drawn) [Compound 252, 2-amino-4-(6-chloro-8-fluoro-2-(((2R,7aS)-2-fluorotetrahydro-1H-pyrrolizin-7a(5H)-yl)methoxy)-4-(1,7-diazaspiro[4.5]decan-7-yl)quinazolin-7-yl)-7-fluorobenzo[b]thiophene-3-carbonitrile], the IC50 was less than 5 µM.

For the compound `N#Cc1c(N)sc2c(F)ccc(-c3c(Cl)cc4c(N5CCC6(CCN6C(=O)n6cncn6)C5)nc(OC[C@@]56CCCN5C[C@H](F)C6)nc4c3F)c12` (stereo partly drawn) [Compound 272, 4-(4-(1-(1H-1,2,4-triazole-1-carbonyl)-1,6-diazaspiro[3.4]octan-6-yl)-6-chloro-8-fluoro-2-(((2R,7aS)-2-fluorotetrahydro-1H-pyrrolizin-7a(5H)-yl)methoxy)quinazolin-7-yl)-2-amino-7-fluorobenzo[b]thiophene-3-carbonitrile], the IC50 is less than 5 µM.

On to `C[C@H](Oc1nc(N2CC[C@@]3(CCN3C(=O)n3cncn3)C2)c2cc(Cl)c(-c3ccc(F)c4sc(N)c(C#N)c34)c(F)c2n1)[C@@H]1CCCN1C` (single isomer, unassigned) [Compound 301], for which the IC50 is less than 5 µM.

Turning to `N#Cc1c(N)sc2c(F)ccc(-c3c(Cl)cc4c(N5CCCC6(CCCN6C(=O)n6cncn6)C5)nc(OC[C@@]56CCCN5C[C@H](F)C6)nc4c3F)c12` (stereo partly drawn) [Compound 246, 4-(4-(1-(1H-1,2,4-triazole-1-carbonyl)-1,7-diazaspiro[4.5]decan-7-yl)-6-chloro-8-fluoro-2-(((2R,7aS)-2-fluorotetrahydro-1H-pyrrolizin-7a(5H)-yl)methoxy)quinazolin-7-yl)-2-amino-7-fluorobenzo[b]thiophene-3-carbonitrile], the IC50 is less than 5 µM.

With `N#Cc1c(N)sc2c(F)ccc(-c3c(Cl)cc4c(N5CC[C@@]6(CCN6C(=O)n6cncn6)C5)nc(OC[C@@]56CCCN5C[C@H](F)C6)nc4c3F)c12` (single isomer, unassigned) [Compound 247], the IC50 was less than 5 µM.

For the compound `N#Cc1c(N)sc2c(F)ccc(-c3c(Cl)cc4c(N5CCCC6(CCN6)C5)nc(OC[C@@]56CCCN5C[C@H](F)C6)nc4c3F)c12` (stereo partly drawn) [Compound 260, 2-amino-4-(6-chloro-8-fluoro-2-(((2R,7aS)-2-fluorotetrahydro-1H-pyrrolizin-7a(5H)-yl)methoxy)-4-(1,6-diazaspiro[3.5]nonan-6-yl)quinazolin-7-yl)-7-fluorobenzo[b]thiophene-3-carbonitrile], the IC50 was less than 5 µM.
